Measurements published in a compilation of properties of binary mixtures (doi:10.1021/je7001804).

Experiment: xn = mol fraction of the nth substance listed
Settings: 101 kPa

CC[n+]1ccn(C)c1.O=S(=O)([O-])C(F)(F)F + O
speed of sound [m/s]
Settings | 278.15 K | 288.15 K | 298.15 K | 308.15 K | 318.15 K | 328.15 K | 338.15 K
x1 = 0.0178 | 1510.5 | 1529 | 1541.8 | 1549.8 | – | 1553.1 | 1548.9
x2 = 0.0502 | 1482.9 | 1459.7 | 1437.1 | 1415 | 1393.3 | 1371.8 | –
x2 = 0.1058 | 1484.8 | 1461.7 | 1439.2 | – | 1395.5 | – | 1352.9
x2 = 0.1504 | 1486.6 | – | 1441 | 1418.9 | 1397 | – | 1354.2
x2 = 0.249 | – | 1468.2 | 1445.9 | 1424 | 1402.3 | 1380.8 | 1359.5
x2 = 0.3004 | 1494 | 1471.3 | 1449.1 | 1427.2 | – | – | –
x2 = 0.3524 | – | 1474.8 | 1452.7 | 1430.8 | 1409.2 | – | 1366.2
x2 = 0.3961 | – | 1478.3 | 1456.2 | 1434.4 | 1412.7 | 1391.2 | 1369.7
x2 = 0.4505 | 1505.3 | 1483 | – | 1439.3 | 1417.7 | 1396.2 | 1374.7
x2 = 0.5024 | 1510.7 | – | 1466.7 | – | 1423.4 | 1401.7 | 1380
x2 = 0.5502 | 1516.2 | 1494.3 | 1472.6 | 1451 | 1429.3 | – | –
x2 = 0.6 | – | 1501.1 | 1479.6 | 1458.1 | – | 1414.9 | 1393
x2 = 0.6502 | 1530.5 | 1509.2 | 1488 | 1466.7 | 1445.3 | 1423.6 | 1401.7
x2 = 0.702 | 1539.8 | 1519.2 | 1498.4 | – | 1456.1 | 1434.6 | 1412.9
x2 = 0.7493 | 1549 | 1529.2 | 1509.1 | – | 1467.8 | 1446.5 | 1424.7
x2 = 0.7998 | – | – | 1522.5 | 1503.1 | 1483 | 1462.2 | 1440.7
x2 = 0.8499 | 1569.5 | 1554.1 | 1537.6 | 1520.1 | 1501.5 | 1482 | –
x2 = 0.8996 | – | 1564.9 | 1552.9 | 1539.1 | 1523.7 | 1506.7 | 1488.2
x2 = 0.9498 | – | 1563.7 | 1561.1 | 1555.7 | 1547.7 | 1537.1 | 1524.2

CC[n+]1ccn(C)c1.O=S(=O)([O-])C(F)(F)F + CCCO
speed of sound [m/s]
Settings | 278.15 K | 288.15 K | 298.15 K | 308.15 K | 318.15 K | 328.15 K | 338.15 K
x2 = 0.049 | 1475.1 | 1451.2 | 1428.3 | 1405.9 | – | 1362.5 | 1341.4
x2 = 0.1095 | 1465.8 | 1441.9 | 1419 | – | 1374.5 | – | 1331.7
x2 = 0.1497 | 1459 | 1435.5 | 1412.7 | 1390.3 | 1368.2 | – | 1325.3
x2 = 0.2004 | 1450.3 | 1426.7 | – | – | 1359.3 | 1337.6 | 1316.5
x2 = 0.3 | 1432.3 | 1408.4 | 1385.2 | 1362.3 | 1340 | 1317.9 | 1296.2
x2 = 0.3993 | – | 1388 | 1364.3 | 1341.1 | 1318.4 | 1295.9 | 1273.9
x2 = 0.499 | 1389.2 | 1364.6 | 1340.5 | 1316.9 | 1293.6 | 1270.7 | 1248.1
x2 = 0.6007 | 1363.1 | 1337.9 | 1313.4 | 1289.2 | – | 1241.7 | 1218.3
x2 = 0.6998 | 1335.8 | – | 1284.3 | – | 1234.2 | 1209.5 | 1185
x2 = 0.7996 | 1308.3 | – | 1253.7 | 1227 | 1200.5 | 1174.3 | 1148.2
x2 = 0.8496 | 1296 | 1267.3 | 1239.2 | 1211.4 | 1183.8 | 1156.5 | 1129.3
x2 = 0.8999 | 1286.3 | 1255.9 | 1226.3 | 1197.1 | 1168.1 | 1139.2 | –
x2 = 0.9499 | 1279.8 | 1247.3 | 1215.6 | – | – | – | 1092
